# Measurements reported in ChEMBL document CHEMBL1159335, “Structures of new cyclic diarylheptanoids and inhibitors of nitric oxide production from Japanese folk medicine Acer nikoense” (J Nat Prod, 2003).
# What was measured:
# Macrophage [1] = experiment: Inhibition of LPS-induced NO production in ddY mouse peritoneal macrophages at 10 uM by Griess reagent method; assay type: functional
# Macrophage [2] = experiment: Inhibition of LPS-induced NO production in ddY mouse peritoneal macrophages by Griess reagent method; assay type: functional, cell-based
# Macrophage [3] = experiment: Inhibition of LPS-induced NO production in ddY mouse peritoneal macrophages at 3 uM by Griess reagent method; assay type: functional
# Macrophage [4] = experiment: Inhibition of LPS-induced NO production in ddY mouse peritoneal macrophages at 30 uM by Griess reagent method; assay type: functional
# [5] = Cytotoxicity against ddY mouse macrophages after 20 hrs by MTT assay; assay type: cell-based; details: macrophage
# Macrophage [6] = experiment: Inhibition of LPS-induced NO production in ddY mouse peritoneal macrophages at 100 uM by Griess reagent method; assay type: functional
# Macrophage [7] = experiment: Inhibition of LPS-induced NO production in ddY mouse peritoneal macrophages at 1 uM by Griess reagent method; assay type: functional
SMILES,inhibition at 10 µM (Macrophage [1]) [%],IC50 (Macrophage [2]) [µM],inhibition at 3 µM (Macrophage [3]) [%],inhibition at 30 µM (Macrophage [4]) [%],Activity [5],inhibition at 100 µM (Macrophage [6]) [%],inhibition at 1 µM (Macrophage [7]) [%]
Oc1ccc(CCCC[C@@H](O)CCc2ccc(O)cc2)cc1,-1.1,73,1.3,10.7,Non-toxic,67.2,-1.3
Oc1ccc2cc1Oc1ccc(cc1)CC[C@H](O)CCCC2 [ACEROGENIN A],11.6,74,5.8,22.2,Non-toxic,61.4,6.7
Oc1ccc2cc1Oc1ccc(cc1)CCCC[C@H](O)CC2 [ACEROGENIN B],-0.2,88,-0.5,17.6,Non-toxic,54.1,1.9
O=C1CCCCc2ccc(O)c(c2)-c2cc(ccc2O)CC1 [ACEROGENIN E],13.6,24,3.3,59.4,Non-toxic,81.2,0.1
Oc1ccc2cc1-c1cc(ccc1O)CCC(O)CCCC2 (stereo not given) [ACEROGENIN K],24.3,25,2.1,56.6,Non-toxic,91.3,6.6
